# According to patent US7358417B2, “Transgenic organism expressing fungal MRP-like ABC transporters” (priority 2001, dated 2008):
# Several values for one entry are separate records, joined by “and”; a condition that tells them apart may be missing. Identical values can stand only once.
# Legend:
# [1] = system: vacuoles of YCF1 transformed plants; experiment: Accumulation of GS-associated compounds in vacuoles separated from YCF1 transformed Arabidopsis
# Procedure: (§1) To Investigate that these phenomena occurred due to the fact that YCF1 proteins transport heavy metals into vacuoles, the vacuoles were separated from YCF1 transformed plants and wild-type plants, and experiments of transporting cadmium and herbicides were carried out.
# [2] = system: vacuoles of wild-type plants; experiment: Accumulation of GS-associated compounds in vacuoles separated from wild-type Arabidopsis
# Procedure: as §1
# yeast = experiment: Growth of yeast on lead or cadmium-containing media; type: cell-based, Saccharomyces cerevisiae; settings: for Growth of ycf1-YCF1 yeast in media containing lead or cadmium: 1.8 mM lead or 50 uM cadmium, galactose media; for Growth of ycf1 mutant yeast as compared with wild-type yeast: 3 mM lead or 0.1 mM cadmium, three days
# Procedure: Wild-type yeast (DTY 165) and ycf1 mutant yeast (DTY 167, MATa ura3 leu2 his3 trp3 lys2 suc2 ycf::hisG) were cultured in YPD liquid media (1% yeast extract, 2% peptone, 2% dextrose) at 30° C. until OD600 reached 1-2, and then yeast cells of the same number (1×10^2, 1×10^3, 1×10^4 or 1×10^5) were cultured in half-diluted YPD solid media containing 3 mM lead at 30° C. for three days. Likewise, they were also cultured in half-diluted YPD solid media containing 0.1 mM cadmium.
# The ycf1-pESC yeast, wt-pESC yeast, and ycf1-YCF1 yeast 25 constructed above were each cultured in galactose media (2% galactose, 1% of 0.17% YNB, 0.13% dropout powder, 0.5% ammonium sulfate) to which 1.8 mM lead was added, or in galactose media to which 50 uM of cadmium was added. Control group was cultured in galactose media without heavy metals. Growth degree of each of the recombinant ycf1-pESC yeast, wt-pESC yeast, and ycf1-YCF1 yeast in lead or cadmium-containing media is shown in the photographs of FIG. 2.
# Resistance to lead in wt-v yeast, yhl035c-v yeast, and YHL035C yeast was tested according to methods substantially similar to the above Example 3-2.
# [3] = system: ycf1-pESC yeast, wt-pESC yeast, ycf1-YCF1 yeast; experiment: Heavy metal content of recombinant yeasts by atomic absorption spectrometer; type: cell-based, Saccharomyces cerevisiae; settings: one day
# Procedure: Three kinds of yeasts (ycf1-pESC yeast, wt-pESC yeast, and ycf1-YCF1 yeast) were each cultured in 1/2 galactose solid media containing 1.5 mM lead or 15 uM cadmium for one day, and the cultured yeasts were scraped for harvest. The harvested yeasts were put into 1 ml of concentrated nitric acid, digested for 200° C. for about 6 hours, and then diluted with 10 ml of 0.5 N nitric acid, and the amount of heavy metals contained in the yeasts was measured using an atomic absorption spectrometer (AAS). The measurement results for ycf1-pESC yeast, wt-pESC yeast, and ycf1-YCF1 yeast are represented by graph In FIG. 3.
# YCF1 Arabidopsis plants = experiment: Accumulation of heavy metals in transformed Arabidopsis plants; type: in vivo, Arabidopsis thaliana; settings: three weeks
# Procedure: YCF1 Arabidopsis plants obtained in Example 5 and wild-type Arabidopsis transformed with empty vector, PBI, were cultivated in 1/2 MS media containing lead (0.75 mM) and cadmium (70 μM) for three weeks to investigate accumulation of heavy metals.
# Arabidopsis plants = experiment: Growth of Arabidopsis plants in the presence of noxious materials; type: in vivo, Arabidopsis thaliana; settings: 60 μM pentavalent arsenic three weeks, 60 μM CDNB two months
# poplar = experiment: Growth of poplar plants in the presence of lead; type: in vivo, Populus alba ×P. glandulosa
# Procedure: The leaf fragments and stalks of YCF1 poplar plants prepared in Example 5 were mounted on callus-inducible media containing 500 ppm of lead, and cultivated for two weeks to Investigate the difference In their growth. As a control, wild-type poplar plants, which were not transformed, were treated in the same manner, and the results of the experiments are shown in FIG. 10.
# YHL035C transformed poplar plants prepared in Example 5 were transferred to a pot and allowed to grow into pot seedlings. These pot seedlings were transferred to soil that was dipped into a solution containing 500 ppm of […].
# [4] = YCF1 transformed vacuoles, +MgATP
smiles,measurement,setting,value
N[C@@H](CCC(=O)N[C@@H](CSc1ccc([N+](=O)[O-])cc1[N+](=O)[O-])C(=O)NCC(=O)O)C(=O)O [DNB − GS],Accumulation in YCF1 transformants relative to wild-type (in words),[1]; +MgATP,a little higher accumulation than wild-type
same,"Accumulation in the vacuoles, YCF1 Transformed Plants, +MgATP",[1]; [4],33 ± 1.2 pmol/1 ul vacuole/20 min
same,"Accumulation in the vacuoles, YCF1 Transformed Plants, −MgATP","[1]; YCF1 transformed vacuoles, −MgATP",24 ± 0.9 pmol/1 ul vacuole/20 min
same,"Accumulation in the vacuoles, Wild-type Plants, +MgATP",[2],28 ± 1.3 pmol/1 ul vacuole/20 min
same,"Accumulation in the vacuoles, Wild-type Plants, −MgATP",[2]; −MgATP,21 ± 1.1 pmol/1 ul vacuole/20 min
N[C@@H](CCC(=O)N[C@@H](CS)C(=O)NCC(=O)O)C(=O)O [GSH],"Accumulation in the vacuoles, YCF1 Transformed Plants, +MgATP",[1]; [4],69 ± 1.1 pmol/1 ul vacuole/20 min
same,"Accumulation in the vacuoles, Wild-type Plants, +MgATP",[2],70 ± 2.2 pmol/1 ul vacuole/20 min
[Cd] [cadmium],Growth of ycf1-YCF1 yeast in media containing lead or cadmium,yeast,grew better than ycf1-pESC yeast or wt-pESC yeast
same,Growth of ycf1 mutant yeast as compared with wild-type yeast,yeast,grew little
same,Accumulation of cadmium in wt-pESC yeast and ycf1-YCF1 yeast compared with ycf1-pESC yeast,[3]; 15 uM cadmium,high accumulation
same,Accumulation of cadmium in YCF1 Arabidopsis plants relative to PBI,YCF1 Arabidopsis plants; 70 μM cadmium,2 fold and 3 fold
same,Growth of wild-type Arabidopsis,Arabidopsis plants; cadmium various concentrations,more chlorosis in leaves
[Pb] [lead],Growth in stalk pieces of YCF1 poplar relative to wild-type,"poplar; 500 ppm of lead, two weeks",~2 fold
same,Growth of YHL035C transformant poplar in soil containing lead,"poplar; 500 ppm, four weeks",grew much better than the wild-type
same,Growth of wild-type poplar in soil containing lead,"poplar; 500 ppm, four weeks",grew poorly
same,Sensitivity of yhl035c-v yeast,yeast; 1.8 mM lead,more sensitive than wt-v yeast
same,Growth of ycf1-YCF1 yeast in media containing lead or cadmium,yeast,grew better than ycf1-pESC yeast or wt-pESC yeast
same,Growth of ycf1 mutant yeast as compared with wild-type yeast,yeast,decreased
same,Accumulation of lead in wt-pESC yeast and ycf1-YCF1 yeast relative to ycf1-pESC yeast,[3]; 1.5 mM lead,~2 fold
same,Accumulation of lead in YCF1 Arabidopsis plants relative to PBI,YCF1 Arabidopsis plants; 0.75 mM lead,2 fold and 1.4 fold
same,Growth of YCF1 Arabidopsis,Arabidopsis plants; lead three weeks,less chlorosis In leaves and better growth of roots
